Entries after “also recorded” stand apart in the source; their conditions may differ.
Tests used:
[1] = tested on: neuromuscular junctions of hindlimb muscles; assay: Regeneration of nerve endings at neuromuscular junctions after sciatic nerve crush; assay type: in vivo, white rat; conditions: 4 weeks after operation, hindlimb muscle
From the text: In order to see whether berberine influences the regeneration of nerve endings in the neuromuscular junctions, 4 weeks after operation, hindlimb muscles connected to sciatic nerves were separated and cryosected. The neuromuscular junctions were stained using beta-tubulin isotypeIII and neurofilament, which are nerve markers.

sciatic nerves [2] = assay: Regeneration of crushed sciatic nerves (axons, myelin sheaths); assay type: in vivo, Sprague-Dawley white rat; conditions: 3 weeks, berberine intraperitoneal
[3] = tested on: nerve cells in cerebral slices; assay: Apoptosis of nerve cells induced by MK-801, TUNEL staining of cerebral slices; assay type: in vivo; conditions: for apoptosis of nerve cells (TUNEL staining): berberine (5 mg/kg) alone, intraperitoneal, young white rats
From the text: All groups were intraperitoneally injected.
Experimental animals were sacrificed under anesthetization and their brains were excised. The excised brains were fixed with formalin and tissue sections were obtained. The tissue sections were stained by TUNEL method, and photographed (×1.25 and ×400) using an optical microscope (Olympus BX 50).
The number of TUNEL-positive dead nerve cells in the same area of cerebral slices of 12 rats per group was counted, and the numbers were averaged (FIG. 1).

SH-SY5Y cells [4] = assay: MTT assay, SH-SY5Y survival under oxidative stress (H2O2); assay type: cell-based, human
Method: SH-SY5Y cells were treated with H2O2 for 30 minutes to induce cell injuries. 3 hours before the cells were treated with H2O2, berberine (0.25˜3.5 μg) was added to cell culture to examine its cell protection effect (see, Table 4 and FIG. 4b).

white rats = assay: Toxicity and side effects in vivo
Method: The dosage for berberine can be varied depending upon known factors, such as age, sex, body weight, disease severity and health condition of the recipient. The daily dosage is commonly in the range of 100 to 150 mg/60 kg of body weight in two or three installments.

SH-SY5Y cells [5] = assay: Neurite regeneration in SH-SY5Y cells; assay type: cell-based, human
Method: (§1) Thereafter, the culture was treated with berberine and further cultured for 2 days. The cultured cells were immunostained with nerve cell-specific labeled molecule, and then the number of cells having neurites longer than cell bodies was counted under a confocal microscope. A positive control was treated with bFGF under the same condition as described above to induce the differentiation into nerve cells. In addition, the neuroregenerative effect was examined after berberine together with bFGF was treated. The differentiation degree was measured by double-staining neurites with nerve cell-specific labeled molecule (anti-neurofilament antibody) and FITC-labeled secondary antibody (green), followed by staining cell nuclei with propidium iodide (red). In order to examine the effect of berberine on neurite regeneration, SH-SY5Y cells were used as differentiated nerve cell lines. Retinoic acid inducing neurite growth was used as a positive control.

sciatic nerves [6] = assay: Regeneration of crushed sciatic nerves (axons, myelin sheaths); assay type: in vivo, Sprague-Dawley white rat; conditions: for number of axons longer than 300 μm / number of myelin sheaths longer than 200 μm: berberine intraperitoneal
Method: After a Sprague-Dawley white rat (male, weighing about 200 g) was anesthetized with pentobarbital (50 mg/kg), the left sciatic nerve was exposed at the sciatic notch. Subsequently, all nerve fibers except the artery in the sciatic nerve were cut, or both sides of nerve fibers were tied using #9 blood vessel suture, and then the center of the nerve fibers were cut using iridectomy scissors. In a crush model, nerve fibers were thoroughly crushed twice using a crush clip. After nerve fibers were injured, proximal stumps and distal stumps were obtained over various time intervals (6 hours, 1 day, 3 day, 7 day, 14 day, 21 day and 28 day), respectively, before testing. For comparison, the right sciatic nerve was used as a control group.
After a white rat was anesthetized, its sciatic nerves were exposed and crushed. PBS or berberine was intraperitoneally injected into the rat. 1 week, 2 weeks and 4 weeks after suturing, nerve regeneration was observed. The rat was perfused and then sciatic nerves were obtained from the distal stump. After the obtained sciatic nerves were cryosected to a thickness of 7-10 μm, cryosected sciatic nerves were double-stained using beta-tubulin isotypeIII (cy3, red), which is an axon marker, and MBP ([…], cy2, green) antibody, which is a differentiation (myelin) marker of Schwann cells. It was observed under a confocal microscope that axons (see, Table 11) were longer than 300 μm and myelin sheaths (see, Table 12) were longer than 200 μm (see, FIGS. 13 to 15, 19a and 19b).

HiB5 cells = assay: Induction of differentiation of HiB5 cells into nerve cells (neurite count, confocal); assay type: cell-based, white rat; conditions: HiB5, berberine, 2 days
Method: as §1, with “(red).” for “(red). In order to examine the effect of berberine on neurite regeneration, SH-SY5Y cells were used as differentiated nerve cell lines. Retinoic acid inducing neurite growth was used as a positive control.”

[7] = N2, H2O2 + berberine 0.25 μg/ml

COc1ccc2cc3[n+](cc2c1OC)CCc1cc2c(cc1-3)OCO2 [Berberine, 7,8,13,13a-tetradihydro-9,10-dimethoxy-2,3-(methylenedioxy) berbinium]
regeneration of nerve endings / formation of neuromuscular junctions [1]: spread to all muscle fibers; also recorded: reached all muscle fibers to form neuromuscular junctions | number of axons longer than 300 μm (sciatic nerves [2]; PBS = 21.3): 51.6 | number of myelin sheaths longer than 200 μm (sciatic nerves [2]; PBS = 40): 112 | apoptosis of nerve cells (TUNEL staining) [3]: did not induce apoptosis of nerve cells | apoptosis of nerve cells (TUNEL staining) ([3]; listed as berberine): apoptosis of nerve cells was not observed | inhibition of apoptosis of nerve cells induced by MK-801 ([3]; pretreated with berberine (5 mg/kg) for 5 days, then MK-801 (0.5 mg/kg) i.p.): considerably inhibits apoptosis of nerve cells induced by MK-801 | Average (O.D. relative to H2O2 alone) (SH-SY5Y cells [4]; [7]): 208% | O.D. (SH-SY5Y cells [4]; [7]): 0.116 | Average (O.D. relative to H2O2 alone) (SH-SY5Y cells [4]; N2, H2O2 + berberine 1.5 μg/ml): 287% | O.D. (SH-SY5Y cells [4]; N2, H2O2 + berberine 1.5 μg/ml): 0.16 | Average (O.D. relative to H2O2 alone) (SH-SY5Y cells [4]; N2, H2O2 + berberine 3 μg/ml): 344% | O.D. (SH-SY5Y cells [4]; N2, H2O2 + berberine 3 μg/ml): 0.192 | Average (O.D. relative to H2O2 alone) (SH-SY5Y cells [4]; N2, H2O2 + berberine 3.5 μg/ml): 228% | O.D. (SH-SY5Y cells [4]; N2, H2O2 + berberine 3.5 μg/ml): 0.127 | LD50 (white rats; intraperitoneally injected): 24.3 mg/kg | acute toxicity (white rats; white rats): no acute toxicity | side effects on liver functions (white rats; white rats): no side effects on liver functions | length of neurites (SH-SY5Y cells [5]; berberine): lengthened the length of neurites | total number of nerve cells, increase (SH-SY5Y cells [5]; berberine): increased two times; also recorded: doubled | Average (%) of differentiated cells (SH-SY5Y cells [5]; berberine 0.25 μg/ml): 63.34% | Number of differentiated cells (SH-SY5Y cells [5]; berberine 0.25 μg/ml): 26.51 | total average cell numbers (SH-SY5Y cells [5]; berberine 0.25 μg/ml): 39.75 | Average (%) of differentiated cells (SH-SY5Y cells [5]; berberine 1.5 μg/ml): 71.04% | Number of differentiated cells (SH-SY5Y cells [5]; berberine 1.5 μg/ml): 27.89 | total average cell numbers (SH-SY5Y cells [5]; berberine 1.5 μg/ml): 38.80 | Average (%) of differentiated cells (SH-SY5Y cells [5]; berberine 3 μg/ml): 73.95% | Number of differentiated cells (SH-SY5Y cells [5]; berberine 3 μg/ml): 28.64 | total average cell numbers (SH-SY5Y cells [5]; berberine 3 μg/ml): 38.60 | number of myelin sheaths longer than 200 μm, increase (sciatic nerves [6]; 1 week): doubled | effect on axonal growth and the regeneration of myelin sheaths (sciatic nerves [6]; 1 week after operation): not great | number of axons longer than 300 μm (sciatic nerves [6]; 1 week, PBS = 14.5): 24.6 | number of myelin sheaths longer than 200 μm (sciatic nerves [6]; 1 week, PBS = 16.5): 35 | number of axons longer than 300 μm (sciatic nerves [6]; 2 weeks, PBS = 20.5): 32.3 | number of myelin sheaths longer than 200 μm (sciatic nerves [6]; 2 weeks, PBS = 43): 88.6 | number of axons (neurites) longer than 300 μm, increase (sciatic nerves [6]; 4 weeks): doubled | number of myelin sheaths longer than 200 μm, increase (sciatic nerves [6]; 4 weeks): 3 times | number of cells differentiated into nerve cells, increase (HiB5 cells): increased two times | Number of differentiated cells (HiB5 cells; N2 = 3.07): 7.87 | Average (%) of differentiated cells (HiB5 cells; N2 = 14.46): 31.57% | total average cell numbers (HiB5 cells; N2 = 22.38): 26.61

Source: patent US20040097534A1, “Composition for the protection and regeneration of nerve cells containing berberine derivatives” (EUGENBIO INC., priority 2001, published 2004)
